{"source": "patent US20250084372A1", "about": "“IN VITRO DERIVATION OF GONADAL SOMATIC CELLS” (Conception Bisosciences, Inc., priority 2020, published 2025)", "key": {"[1]": {"tested_on": "ovarian somatic cells (OSCs)", "assay": "OSC induction with different FGF family members, marker expression", "format": "cell-based, human", "settings": "10 ng/mL FGF in granulosa double medium", "procedure": "Fibroblast growth factors (FGFs) are a large family of proteins that are important for signaling events in a wide variety of processes. […] Briefly, gonadal cells were induced in granulosa doublemedium comprising different FGFs, and the expression of bipotential gonadal markers as well as that of granulosa markers were measured in the resulting cells.\nThe replated cells from the second intermediate population were incubated in the granulosa double medium (also referred to as gonadal induction medium or OSC induction medium) according to Table 18, with the same concentration of either FGF2, 9, 10, 16, 17, 18 or 19. The expression of bipotential gonadal markers (WT1, LHX9, GADD45G and GATA4) as well as granulosa markers (FOXL2, NR1H4 and KITLG) were measured in the resulting cells."}, "[2]": {"tested_on": "ovarian somatic cells (OSCs)", "assay": "RA concentration and exposure gradient during OSC induction, FOXL2 and KRT19 staining", "settings": "10-step gradient 0 μM to 10 μM"}, "[3]": {"tested_on": "second intermediate cell population", "assay": "Induction of second intermediate (IM) cell population: survival and morphology, phase contrast", "format": "cell-based, human", "settings": "5 days in IM-induction media, increasing concentration", "procedure": "The cell suspension was centrifuged at 1200 RPM for 5 min and the supernatant was discarded. The centrifuged cells were resuspended in 1 ml of GK2 medium and the cells were counted. About 720,000 cells (from 24 well plate: 30,000 cells per well) were added to 12 mL IM-induction medium (as prepared in Table 10, but without the ROCK inhibitor). 12 μL ROCK inhibitor Y-27632 (1000×) or 36 μL of CET (3:1000) (final concentration of CET in media: 50 nM Chroman1, 5 μM Emricasan, 0.7 μM Trans-ISRIB) was added to obtain 60,000 cells/mL. 500 μL of the solution was placed in each well of fibronectin coated 24-well plate (about 30,000 cells/well). The plates were cultured for 24 hours, and then 80% of the media was replaced with fresh IM-induction media without the ROCK inhibitor. 80% of the media was again replaced every other day until the cells became confluent (about 5-6 days). Once the cells were confluent, the cells were passaged to fresh fibronectin-coated 24-well plates, with at least 50,000 cells per well after passage (25k/cm^2). About 4-5 million second intermediate cells were produced per 24 well plate. […]"}, "[4]": {"tested_on": "second intermediate cell population (LHX1, PAX2, WT1, RUNX1)", "assay": "Intermediate mesoderm marker expression in second intermediate cell population", "format": "cell-based, human", "settings": "increasing concentration; for expression of intermediate mesoderm markers WT1 and RUNX1: CHIR 0.5, 1 or 2 μM, RA or TTNPB 0, 0.1, 0.5 or 1 μM", "procedure": "The cell suspension was centrifuged at 1200 RPM for 5 min and the supernatant was discarded. The centrifuged cells were resuspended in 1 ml of GK2 medium and the cells were counted. […] The plates were cultured for 24 hours, and then 80% of the media was replaced with fresh IM-induction media without the ROCK inhibitor. 80% of the media was again replaced every other day until the cells became confluent (about 5-6 days). Once the cells were confluent, the cells were passaged to fresh fibronectin-coated 24-well plates, with at least 50,000 cells per well after passage (25k/cm^2)."}, "[5]": {"tested_on": "OSCs", "procedure": "To assay whether the gonadal somatic cells (such as the ovarian somatic cells—OSCs) generated from pluripotent stem cells are functional, expression of CYP19A1 was assayed by qPCR, and steroidogenesis was measured by ELISA for estradiol.\nA first intermediate cell population expressing markers representative of mesoderm, and a second intermediate cell population expressing markers representative of intermediate mesoderm, and the OSCs were generated according to the protocols described in Example 6."}, "[6]": {"tested_on": "ovarian somatic cells (OSCs)", "assay": "Concentration titration of BMP4, follistatin and FGF2 in OSC induction, qPCR for GATA4 and FOXL2", "format": "cell-based, human", "settings": "BMP4 20 ng/mL, follistatin removed", "procedure": "Various concentration titrations of BMP4, Follistatin and FGF were tested in OSC induction, and the resulting cells were examined for expression of bipotential gonadal markers as well as that of granulosa markers.\nThe OSCs were induced based on the protocols described in Example 6, but with various concentrations of BMP4. Follistatin and FGF tested.\nThe OSC induction conditions were first tested by varying the BMP4 concentration. […] The gene expression of resulting cells was tested by qPCR for bi-potential gonadal cell markers (GATA4) as well as for granulosa cell markers (FOXL2) (FIGS. 12A and 12B respectively). Expression of GATA4 increased with higher BMP4 concentration, and FOXL2 expression appeared to peak at 10 ng/ml of BMP4 under the conditions tested.\nFour different concentrations of follistatin were then tested in OSC induction, with the concentration of BMP4 kept constant at 20 ng/ml as previously described. The gene expression of resulting cells was tested by qPCR for bi-potential gonadal cell markers (GATA4) as well as for granulosa cell markers (FOXL2) (FIGS. 12C and 12D respectively). […] The generation of mature OSCs were also examined by FOXL2 expression. […] In subsequent experiments, OSC induction in the absence or at lower concentrations of follistatin was further explored. […]"}}, "data": [{"molecule": "FGF16: fibroblast growth factor family member", "values": [{"measurement": "expression of bipotential gonadal markers (WT1, LHX9, GADD45G, GATA4) compared to FGF2", "setting": "[1]", "result": "comparable or higher"}, {"measurement": "expression of granulosa markers (FOXL2, NR1H4, KITLG) compared to corresponding medium", "setting": "[1]", "result": "comparable"}]}, {"molecule": "FGF19: fibroblast growth factor family member", "values": [{"measurement": "expression of bipotential gonadal markers (WT1, LHX9, GADD45G, GATA4) compared to FGF2", "setting": "[1]", "result": "comparable or higher"}, {"measurement": "expression of granulosa markers (FOXL2, NR1H4, KITLG) compared to corresponding medium", "setting": "[1]", "result": "comparable"}]}, {"molecule": "CC1=C(/C=C/C(C)=C/C=C/C(C)=C/C(=O)O)C(C)(C)CCC1", "note": "[RA, retinoic acid]", "values": [{"measurement": "RA concentration at which KRT19 staining peaked", "setting": "[2]", "result": "around 500 nM"}]}, {"molecule": "C/C(=C\\c1ccc(C(=O)O)cc1)c1ccc2c(c1)C(C)(C)CCC2(C)C", "note": "[TTNPB]", "values": [{"measurement": "cell survival and cellular morphology of second intermediate cell population", "setting": "[3]", "result": "increased cell survival and uniform cellular morphology"}, {"measurement": "expression of intermediate mesoderm markers WT1 and RUNX1", "setting": "[4]", "result": "increasing expression"}]}, {"molecule": "C[C@]12CCC(=O)C[C@@H]1CC[C@@H]1[C@@H]2CC[C@]2(C)[C@@H](O)CC[C@@H]12", "note": "[dHT, dihydroxy-testosterone]", "values": [{"measurement": "estradiol levels in the media, 48 hrs compared to 24-hr incubation", "setting": "[5]; 50 ng/ml, 48 hrs", "result": "further increase"}, {"measurement": "estradiol levels in the media", "setting": "[5]; 24-hr incubation, higher concentration", "result": "increased"}]}, {"molecule": "FGF2", "values": [{"measurement": "FGF2 concentration at which GATA4 and FOXL2 expression reach saturation", "setting": "[6]", "result": 20, "unit": "ng/mL"}]}, {"molecule": "Cc1c[nH]c(-c2cnc(NCCNc3ccc(C#N)cn3)nc2-c2ccc(Cl)cc2Cl)n1", "note": "[CHIR, CHIR99021]", "values": [{"measurement": "expression of intermediate mesoderm markers WT1 and RUNX1", "setting": "[4]", "result": "increased expression"}, {"measurement": "expression of intermediate mesoderm markers LHX1 and PAX2", "setting": "[4]; CHIR 1, 2 or 3 μM, RA 50 nM, 100 nM, 500 nM or 1 μM", "result": "increased expression"}]}]}
